What is called AC50 is the midpoint of the concentration-response curve, whichever way the signal moves. Usually IC50 stands for the concentration that inhibits the measured activity by half.

For assay [1], the target named is T1, Replicative DNA helicase DnaB (Mycobacterium tuberculosis, UniProt P9WMR3).
T1 sequence (P9WMR3 whole entry): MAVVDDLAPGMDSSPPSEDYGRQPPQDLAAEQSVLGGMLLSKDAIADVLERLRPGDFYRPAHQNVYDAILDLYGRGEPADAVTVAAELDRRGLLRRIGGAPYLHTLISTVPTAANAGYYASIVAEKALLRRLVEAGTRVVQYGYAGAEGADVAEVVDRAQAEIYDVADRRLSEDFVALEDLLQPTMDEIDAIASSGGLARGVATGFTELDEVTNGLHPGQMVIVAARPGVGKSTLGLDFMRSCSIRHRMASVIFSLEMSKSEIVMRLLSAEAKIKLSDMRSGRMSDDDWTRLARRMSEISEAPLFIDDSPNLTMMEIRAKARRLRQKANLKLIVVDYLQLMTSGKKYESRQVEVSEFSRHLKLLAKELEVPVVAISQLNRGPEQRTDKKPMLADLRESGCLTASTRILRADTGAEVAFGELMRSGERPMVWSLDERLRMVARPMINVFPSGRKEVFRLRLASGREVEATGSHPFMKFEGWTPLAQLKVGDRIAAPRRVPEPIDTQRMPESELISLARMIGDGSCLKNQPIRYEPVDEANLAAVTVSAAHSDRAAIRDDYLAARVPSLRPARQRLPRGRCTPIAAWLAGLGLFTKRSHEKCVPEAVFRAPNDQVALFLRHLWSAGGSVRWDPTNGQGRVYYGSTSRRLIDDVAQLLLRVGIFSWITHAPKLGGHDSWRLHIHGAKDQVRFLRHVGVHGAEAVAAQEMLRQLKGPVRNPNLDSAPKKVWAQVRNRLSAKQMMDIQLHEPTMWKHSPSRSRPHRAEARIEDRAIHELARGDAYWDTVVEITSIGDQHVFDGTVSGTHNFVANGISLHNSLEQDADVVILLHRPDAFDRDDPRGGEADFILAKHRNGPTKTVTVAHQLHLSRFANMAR
Briefly: DnaB intein splicing inhibitors, dose response, biochemical, cell-free fluorescence (AID 449749). The class given is functional.

A further assay deals with T2, Protein RecA (Mycobacterium tuberculosis, UniProt P9WHJ3).
T2 sequence (P9WHJ3 whole entry): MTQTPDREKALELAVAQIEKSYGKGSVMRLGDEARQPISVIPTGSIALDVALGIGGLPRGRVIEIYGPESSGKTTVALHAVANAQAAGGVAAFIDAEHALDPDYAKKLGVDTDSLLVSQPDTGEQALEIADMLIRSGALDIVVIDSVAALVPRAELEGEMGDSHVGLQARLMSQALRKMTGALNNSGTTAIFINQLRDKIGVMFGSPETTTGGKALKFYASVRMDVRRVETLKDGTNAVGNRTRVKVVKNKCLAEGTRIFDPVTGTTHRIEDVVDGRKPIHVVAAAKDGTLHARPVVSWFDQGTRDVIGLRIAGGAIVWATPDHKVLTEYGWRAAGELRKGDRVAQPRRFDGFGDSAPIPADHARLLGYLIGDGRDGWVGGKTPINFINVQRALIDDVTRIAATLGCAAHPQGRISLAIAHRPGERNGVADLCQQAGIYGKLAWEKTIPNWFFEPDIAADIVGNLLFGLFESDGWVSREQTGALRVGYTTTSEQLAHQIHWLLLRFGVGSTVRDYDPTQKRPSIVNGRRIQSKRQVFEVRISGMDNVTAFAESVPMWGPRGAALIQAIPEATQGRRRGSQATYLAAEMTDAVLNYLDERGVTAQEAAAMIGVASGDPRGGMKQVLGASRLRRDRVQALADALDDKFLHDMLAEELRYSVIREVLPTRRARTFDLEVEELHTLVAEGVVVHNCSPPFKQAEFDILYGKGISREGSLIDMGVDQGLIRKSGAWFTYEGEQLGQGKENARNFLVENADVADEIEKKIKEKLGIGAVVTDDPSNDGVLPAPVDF
The assay is described as follows: Fluorescence Cell-Free Homogeneous Dose Retest to Identify Inhibitors of RecA-Intein Splicing Activity. [Related pubchem assays (depositor defined):AID2097, AID2223, AID489010, AID492950]. The class given is functional.

Assay [2] has as its target T3, Rac GTPase-activating protein 1 (Homo sapiens, UniProt Q9H0H5).
T3 sequence (Q9H0H5 whole entry): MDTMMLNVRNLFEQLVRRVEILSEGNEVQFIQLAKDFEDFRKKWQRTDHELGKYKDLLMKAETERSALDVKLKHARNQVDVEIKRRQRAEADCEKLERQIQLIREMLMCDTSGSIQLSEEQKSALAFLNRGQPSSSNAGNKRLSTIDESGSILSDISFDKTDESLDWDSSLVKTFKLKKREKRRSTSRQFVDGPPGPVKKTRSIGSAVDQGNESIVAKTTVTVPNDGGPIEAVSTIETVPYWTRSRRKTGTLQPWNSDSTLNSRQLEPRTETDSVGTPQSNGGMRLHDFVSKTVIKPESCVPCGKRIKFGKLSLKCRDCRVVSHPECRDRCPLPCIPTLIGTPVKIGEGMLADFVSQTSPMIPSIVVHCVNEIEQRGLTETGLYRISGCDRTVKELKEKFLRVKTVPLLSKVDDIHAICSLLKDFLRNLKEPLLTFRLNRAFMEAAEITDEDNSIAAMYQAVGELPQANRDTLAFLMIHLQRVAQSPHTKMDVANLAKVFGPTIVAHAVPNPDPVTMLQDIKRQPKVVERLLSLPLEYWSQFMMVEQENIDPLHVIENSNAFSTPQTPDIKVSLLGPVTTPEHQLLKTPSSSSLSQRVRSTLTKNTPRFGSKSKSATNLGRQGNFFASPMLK
The assay is described as follows: MgcRacGAP GTPase-activating activity inhibitors, confirmation, biochemical, ADP Hunter fluorescence, primary and confirmatory (AID 624330). The class given is functional.

The next assay deals with INS1. The assay is described as follows: beta cell apoptosis inhibitors, cytokine rescue, dose response, luminescence, retest (AID 449756).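 Note: cell death triggered by IL-1 beta plus TNF-alpha plus IFN-gamma mixture; protective hits raise ATP signal compared with cytokine alone wells.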 The class given is functional, cell-based. The conditions noted are these: Rattus norvegicus.
Assay [3] can be described thus: cells. The class given is functional, cell-based.
Assay [4] is described as follows: cells. The class given is functional, cell-based. This is another data set of the same source.
Assay [5] has as its target T4, Heat shock factor protein 1 (Mus musculus, UniProt P38532).
T4 sequence (P38532 whole entry): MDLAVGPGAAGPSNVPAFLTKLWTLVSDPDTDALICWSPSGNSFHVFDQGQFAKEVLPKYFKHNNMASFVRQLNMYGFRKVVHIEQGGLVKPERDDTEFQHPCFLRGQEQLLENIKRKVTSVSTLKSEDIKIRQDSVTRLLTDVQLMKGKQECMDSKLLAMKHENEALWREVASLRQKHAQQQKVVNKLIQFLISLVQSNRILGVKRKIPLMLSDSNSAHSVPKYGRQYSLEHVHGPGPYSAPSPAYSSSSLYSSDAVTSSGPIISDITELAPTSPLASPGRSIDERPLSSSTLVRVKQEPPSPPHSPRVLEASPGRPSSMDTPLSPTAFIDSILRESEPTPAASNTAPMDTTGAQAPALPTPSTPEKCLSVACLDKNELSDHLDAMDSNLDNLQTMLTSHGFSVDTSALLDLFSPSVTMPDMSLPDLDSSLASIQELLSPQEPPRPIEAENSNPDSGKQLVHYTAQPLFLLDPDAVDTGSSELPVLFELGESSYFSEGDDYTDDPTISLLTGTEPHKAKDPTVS
Briefly: HSF1 potentiators in luciferase reporter cells, confirmation, cell-based, NIH3T3, luminescence, dose retest (AID 435004).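 Note: stress induced by proteasome inhibitor MG132 added 30 min after compound; luciferase reporter driven by HSF1 response element in NIH3T3 cells; actives raise luminescence as potentiators of the MG132 stress response.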 The class given is functional. (Reporter assays use an easily measured gene product as a stand-in for the process of interest.)

Assay [6] addresses T5, Corticotropin-releasing factor receptor 2/Corticotropin-releasing factor-binding protein (Homo sapiens, UniProt P24387+Q13324).
T5 sequence (Q13324 whole entry): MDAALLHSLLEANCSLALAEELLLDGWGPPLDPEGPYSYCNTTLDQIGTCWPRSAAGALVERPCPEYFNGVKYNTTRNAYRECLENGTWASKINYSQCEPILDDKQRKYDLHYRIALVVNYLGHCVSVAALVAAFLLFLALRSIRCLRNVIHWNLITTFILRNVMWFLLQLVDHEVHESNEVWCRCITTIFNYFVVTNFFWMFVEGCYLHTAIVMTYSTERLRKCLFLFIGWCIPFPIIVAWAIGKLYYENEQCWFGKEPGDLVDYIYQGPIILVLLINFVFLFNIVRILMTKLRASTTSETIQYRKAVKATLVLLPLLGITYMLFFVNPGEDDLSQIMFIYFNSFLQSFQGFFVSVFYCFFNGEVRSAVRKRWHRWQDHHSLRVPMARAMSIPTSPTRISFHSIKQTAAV
T5 sequence (P24387 whole entry): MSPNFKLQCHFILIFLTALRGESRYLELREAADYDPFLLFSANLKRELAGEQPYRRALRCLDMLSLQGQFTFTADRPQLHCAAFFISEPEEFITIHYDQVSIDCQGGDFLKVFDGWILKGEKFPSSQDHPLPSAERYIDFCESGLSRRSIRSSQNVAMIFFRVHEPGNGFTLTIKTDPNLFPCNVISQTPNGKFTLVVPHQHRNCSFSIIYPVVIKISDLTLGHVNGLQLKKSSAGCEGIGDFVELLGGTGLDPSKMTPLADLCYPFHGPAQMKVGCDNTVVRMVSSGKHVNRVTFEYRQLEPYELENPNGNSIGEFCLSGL
The assay is described as follows: activators of CRF receptor 2 with binding protein – uHTS hits, confirmation (AID 602473). The class given is functional. Particulars: read-out: EC50_Mean.

The source made the active and inactive calls. Cut-off read from the data, not from the text of the source, for most assays here: actives have a measured EC50 and inactives only a lower limit.

For the molecule `COc1cc(C2C(C#N)=C(N)Oc3[nH]nc(-c4cccnc4)c32)ccc1OCC(N)=O` (configuration not stated), the AC50 in assay [1] is 48.5 µM (active). The EC50 on Protein RecA is 3.16 µM (active). Take `Cc1ccc(OCCCCNC(C)(C)C)c([N+](=O)[O-])c1`: the IC50 in assay [2] was 141 µM (active). For `O=[N+]([O-])c1cccc(/C=N/n2cnnc2)c1`, the AC50 with INS1 was > 260 µM (inactive). Regarding `Cc1ccc(OC(C)C(=O)N2CC(=O)Nc3ccccc32)cc1` (configuration not stated), the EC50 in the assay “cells [3]” and in the assay “cells [4]” was > 350 µM (not active) each time. As for `O=C(c1c[nH]c(C(=O)C(Cl)(Cl)Cl)c1)c1ccc(F)cc1F`, the AC50 in assay [1] was 21.2 µM (active). In addition, the EC50 at Protein RecA is 7.8 µM (active). For the molecule `Cc1[nH]nc(O)c1C(c1ccc(Cl)cc1)c1c(O)n[nH]c1C`, in assay [1], the AC50 is 1.27 µM (active). The EC50 at Protein RecA is 0.461 µM (active). In the case of `CCSc1cc(C)nc2c(-c3ccccc3)cnn12`, the EC50 was > 350 µM (not active) in the assay “cells [3]” and 23.1 µM (active) in “cells [4]”. Regarding `O=C(Cn1nc(-c2ccccc2Cl)ccc1=O)Nc1ccccc1-c1ccccc1`, the EC50 in the assay “cells [3]” is > 350 µM (not active); in assay [5], 120 µM (active); in “cells [4]” it was > 350 µM (not active). `NS(=O)(=O)c1ccc(CCNC(=O)COC(=O)CCc2c[nH]c3ccccc23)cc1`: the EC50 in assay [6] was 22 µM (active). Regarding `CSc1nnc(C)c(/C=C/Nc2ccc(C)cc2)n1`, the EC50 in assay [6] was 14.9 µM (active). For the molecule `C(/CCc1ccccc1)=N\Nc1nc2ccccc2[nH]1`, the EC50 in “cells [3]” is 92.2 µM (active); in the assay “cells [4]”, 35.8 µM (active). Further, the AC50 with INS1 is 5.2 µM (active).

With `Cc1cccc(Nc2c(-c3ccc(O)cc3)nc3ncccn23)c1`, the IC50 in assay [2] is 32.1 µM (active). Take `COC(=O)COc1c(Cl)cc(C(c2c(C)n[nH]c2O)c2c(C)n[nH]c2O)cc1OC`: in assay [1], the AC50 was 0.47 µM (active). For the same molecule, the EC50 at Protein RecA is 0.158 µM (active). Take `Oc1ccc(-c2cn3c(n2)SCC3)cc1`: the IC50 in assay [2] is 18.9 µM (active). Same read-out and setting: next, `CCN1CCN(C(S)=NCC2CCCO2)CC1` (configuration not stated): 186 µM (active); `Cc1ccc(COC(=O)Cc2coc3cc(O)ccc23)cc1`: 30.1 µM (active).

With `Cc1nnc2ccc(Oc3ccc(-c4ccccc4)cc3)nn12`, the IC50 in assay [2] is 99.4 µM (active). Further, the AC50 in the assay on INS1 was 6.58 µM (active). Turning to `COc1ccc(NC2CCCN(C(=O)c3ccc4[nH]c(C)c(C)c4c3)C2)cc1` (configuration not stated), in assay [2], the IC50 is 81.4 µM (active). In the case of `CCCCCn1c(=O)c(C(=O)NCc2ccccc2Cl)c(O)c2ccccc21`, the AC50 in the assay on INS1 is 8.04 µM (active). For the molecule `COc1cc(NC(=O)CN2C(=O)c3ccccc3Sc3ccc(C(=O)N4CCOCC4)cc32)cc(OC)c1OC`, the EC50 in the assay “cells [3]” and in the assay “cells [4]” was > 350 µM (not active) each time. Consider `CCCS(=O)(=O)N1CCN(Cc2ccco2)CC1`, for which the IC50 in assay [2] is 130 µM (active). For the molecule `O=C(CSc1nnnn1C1CC1)N1CCN(c2ccc(O)cc2)CC1`, the IC50 in assay [2] was 30.8 µM (active). Take `Cc1ccc(-n2cc(CN3CCC(CO)(Cc4ccccc4)CC3)cn2)cc1`: the EC50 in “cells [3]” and in the assay “cells [4]” was > 350 µM (not active) in each case. In the case of `O=C(CCCCl)Oc1ccc2cc(-c3ccc4ccccc4n3)c(=O)oc2c1`, the EC50 in assay [6] is 13.7 µM (active). In the case of `Cc1ccc(S(=O)(=O)Nc2cc(-c3ccc(Cl)cc3)nn2C)cc1`, the EC50 in “cells [3]” and in “cells [4]” was > 350 µM (not active) throughout. Take `Cc1occc1C(=O)N/N=C/c1c(O)ccc2ccccc12`: the EC50 in the assay “cells [3]” is 69 µM (active); in “cells [4]” it was 9.8 µM (active). Moreover, the AC50 in the assay with INS1 is 1.25 µM (active).

The values are drawn from ChEMBL document CHEMBL1201862, “PubChem BioAssay data set” (2004).
